The data set in a line: Particle size distribution (Malvern Mastersizer 3000) of starting and vortex-mill ground salts. It counts as physicochemical. As to the method:
The vortioxetine salts according to the present invention can be ground preferably in a vortex mill, if necessary. Such active ingredients ground in a vortex mill are used in the pharmaceutical compositions according to examples 20-23.
The distribution of the particle size is measured on a Malvern Mastersizer 3000 apparatus under the following conditions: […]

Setting [1] is: dispersing pressure 2.0 bar, hemicitrate salt.
The mark [2] stands for this setting: dispersing pressure 2.0 bar, monooxalate salt.

Turning to “1-[2-(2,4-dimethyl-phenylsulfanyl)-phenyl]-piperazine L-(+)-mandelic acid salt [Vortioxetine-L-mandalate ground]”, under “dispersing pressure 2.0 bar”, the “Characteristic particle size d10” value is 0.5 (±0.6%) μm, the “Characteristic particle size d50” value was 2.1 (±0.2%) μm and the “Characteristic particle size d90” value is on record as 5.0 (±0.9%) μm.
“1-[2-(2,4-dimethyl-phenylsulfanyl)-phenyl]-piperazine L-(+)-mandelic acid salt [Vortioxetine-L-mandalate]”: where the note is “dispersing pressure 2.0 bar”, the “Characteristic particle size d10” value is listed as 8.6 (±0.2%) μm, the “Characteristic particle size d50” value is reported as 41.5 (±0.2%) μm and the “Characteristic particle size d90” value was 114 (±0.9%) μm.
With “1-[2-(2,4-dimethyl-phenylsulfanyl)-phenyl]-piperazine hemicitrate salt [Vortioxetine-hemicitrate ground]”, under setting [1], the “Characteristic particle size d10” value is 0.6 (±0.7%) μm, the “Characteristic particle size d50” value is given as 2.9 (±0.2%) μm and the “Characteristic particle size d90” value is given as 9.1 (±1.1%) μm.
For “1-[2-(2,4-dimethyl-phenylsulfanyl)-phenyl]-piperazine hemicitrate salt [Vortioxetine-hemicitrate]”, in that order: 5.3 (±0.4%) μm, 25.9 (±0.7%) μm and 83.6 (±0.4%) μm.
Regarding `Br.Cc1ccc(Sc2ccccc2N2CCNCC2)c(C)c1` [Vortioxetine-hydrobromide ground, 1-[2-(2,4-dimethyl-phenylsulfanyl)-phenyl]-piperazine hydrobromide salt, reference compound], where the note is “dispersing pressure 2.0 bar”, the “Characteristic particle size d10” value is reported as 0.4 (±0.5%) μm, the “Characteristic particle size d50” value is reported as 2.1 (±0.7%) μm and the “Characteristic particle size d90” value is 6.2 (±1.0%) μm.
Take `Br.Cc1ccc(Sc2ccccc2N2CCNCC2)c(C)c1` [Vortioxetine-hydrobromide, 1-[2-(2,4-dimethyl-phenylsulfanyl)-phenyl]-piperazine hydrobromide salt, reference compound]: under “dispersing pressure 4.0 bar”, the “Characteristic particle size d10” value is listed as 1.4 (±2.2%) μm, the “Characteristic particle size d50” value is reported as 10.8 (±1.6%) μm and the “Characteristic particle size d90” value is on record as 98.6 (±4.3%) μm.
`Cc1ccc(Sc2ccccc2N2CCNCC2)c(C)c1.O=C(O)C(=O)O` [Vortioxetine-monooxalate ground, 1-[2-(2,4-dimethyl-phenylsulfanyl)-phenyl]-piperazine monooxalate salt]: under setting [2], the “Characteristic particle size d10” value was 0.7 (±0.5%) μm, the “Characteristic particle size d50” value is on record as 2.2 (±0.7%) μm and the “Characteristic particle size d90” value is recorded as 5.9 (±0.9%) μm.
For `Cc1ccc(Sc2ccccc2N2CCNCC2)c(C)c1.O=C(O)C(=O)O` [Vortioxetine-monooxalate, 1-[2-(2,4-dimethyl-phenylsulfanyl)-phenyl]-piperazine monooxalate salt], under setting [2], the “Characteristic particle size d10” value is given as 2.0 (±0.3%) μm, the “Characteristic particle size d50” value is 6.8 (±0.5%) μm and the “Characteristic particle size d90” value is listed as 21.14 (±0.7%) μm.

Values taken from US9822086B2, “Process for the preparation of vortioxetine salts” (Egis Gyogyszergyar Zrt., priority 2014, dated 2017).
